Converted amounts (≈) assume the structure as drawn. Like-named read-outs stand apart in the source and are kept apart here.
Key:
Type in all cases: in vivo, Pepper mild mottle virus (PMMoV)
PMMoV [1] = assay: Antiviral activity assay against PMMoV, inactivating activity; details: for pest or weed control at 500 µg/mL / EC50: Pepper mild mottle virus; for pest or weed control at 500 µg/mL: read-out: Inactivating activity; for EC50: read-out: EC50 of inactivating activity
Experimental: (§1) Virions were isolated and extracted from leaves of N. benthamiana infected with PMMoV referring to the method recorded in the literature. And the inhibiting activities of C1–C38 against PMMoV were assessed with reference to the literature as well [26, 34].

PMMoV [2] = assay: Antiviral activity assay against PMMoV, curative activity; design: Curative activity: concentration or dose not given beside the values; details: for EC50: Pepper mild mottle virus, read-out: EC50 of curative activity
Experimental: as §1

PMMoV [3] = assay: Antiviral activity assay against PMMoV, protective activity; design: Protective activity: concentration or dose not given beside the values; details: for EC50: Pepper mild mottle virus, read-out: EC50 of protective activity
Experimental: as §1

[4] = against PMMoV, at 500 µg/mL, average of three replicates, ± standard deviation
[5] = against PMMoV, average of three replicates, ± standard deviation

| Structure (SMILES) | pest or weed control at 500 µg/mL (PMMoV [1]; [4]) [%] | EC50 (PMMoV [1]; [5]) [µg/mL] | EC50 (PMMoV [2]; [5]) [µg/mL] | Curative activity (PMMoV [2]; [5]) [%] | EC50 (PMMoV [3]; [5]) [µg/mL] | Protective activity (PMMoV [3]; [5]) [%] | EC50 (PMMoV [1]) [µg/mL] | pest or weed control at 500 µg/mL (PMMoV [1]) [%] | EC50 (PMMoV [2]) [µg/mL] | EC50 (PMMoV [3]) [µg/mL] | Inactivating activity (PMMoV [1]; [4]) [%] |
| --- | --- | --- | --- | --- | --- | --- | --- | --- | --- | --- | --- |
| COc1ccc(S(=O)(=O)NC2C(OC(C)=O)C(OC(C)=O)C(COC(C)=O)OC2n2cnc3c(N4CCOCC4)nc(F)nc32)cc1 (stereo not shown) [C13] | 47.3 ± 2.7 | 458.1 ± 3.3 (≈ 673 µM) | 20.9 ± 3 (≈ 30.7 µM) | 72.5 ± 2.6 | 596 ± 10.9 (≈ 876 µM) | 46.5 ± 3.4 |  |  |  |  |  |
| CC(=O)OCC1OC(n2cnc3c(N4CCOCC4)nc(F)nc32)C(NS(=O)(=O)c2ccccc2)C(OC(C)=O)C1OC(C)=O (stereo not shown) [C19] | 69.7 ± 1.9 | 25.5 ± 4 (≈ 39.2 µM) | 36.7 ± 3.7 (≈ 56.4 µM) | 69.5 ± 4.7 | 159 ± 11.8 (≈ 245 µM) | 59.8 ± 3.6 |  |  |  |  |  |
| CC(=O)OCC1OC(n2cnc3c(N4CCOCC4)ncnc32)C(NS(=O)(=O)c2ccccc2Br)C(OC(C)=O)C1OC(C)=O (stereo not shown) [C17] | 59.9 ± 4 | 84 ± 2.8 (≈ 118 µM) | 16.1 ± 2.7 (≈ 22.6 µM) | 70.5 ± 3.8 | 140 ± 9.5 (≈ 197 µM) | 61.0 ± 5.3 |  |  |  |  |  |
| CC(=O)OCC1OC(n2cnc3c(N4CCOCC4)nc(Cl)nc32)C(NS(=O)(=O)c2ccc([N+](=O)[O-])cc2)C(OC(C)=O)C1OC(C)=O (stereo not shown) [C4] | 64.1 ± 3.5 | 141 ± 12.1 (≈ 198 µM) | 219 ± 9 (≈ 308 µM) | 61.2 ± 3.7 | 475 ± 15.8 (≈ 667 µM) | 52.6 ± 2.0 |  |  |  |  |  |
| O=[N+]([O-])c1ccc(S(=O)(=O)NC2C(O)C(O)C(CO)OC2n2cnc3c(N4CCOCC4)ncnc32)cc1 (stereo not shown) [C37] | 57.8 ± 3.4 | 280 ± 13.9 (≈ 507 µM) | 2000 ± 21.8 (≈ 3620 µM) | 36.2 ± 4.6 | 344 ± 15.8 (≈ 623 µM) | 50.6 ± 2.1 |  |  |  |  |  |
| CNCC(=O)N[C@@H](CO)C(=O)N[C@H]1[C@H](O)[C@@H](O)[C@H](n2ccc(N)nc2=O)O[C@@H]1C(N)=O [Ningnanmycin, reference compound] |  |  |  | 54.5 ± 3.3 |  | 60.8 ± 3.1 | 67.3 ± 3.5 (≈ 152 µM) | 71.2 ± 6.1 | 258 ± 7.6 (≈ 581 µM) | 285 ± 5.3 (≈ 644 µM) |  |
| CC(=O)OCC1OC(n2cnc3c(N4CCOCC4)ncnc32)C(NS(=O)(=O)c2ccc(C(F)(F)F)cc2)C(OC(C)=O)C1OC(C)=O (stereo not shown) [C26] | 45.5 ± 2.6 | 632 ± 15.2 (≈ 902 µM) | 45.1 ± 4.7 (≈ 64.4 µM) | 67.6 ± 2.5 | 788 ± 12.8 (≈ 1120 µM) | 44.5 ± 1.6 |  |  |  |  |  |
| CC(=O)OCC1OC(n2cnc3c(N4CCOCC4)nc(Cl)nc32)C(NS(=O)(=O)c2ccc(C#N)cc2)C(OC(C)=O)C1OC(C)=O (stereo not shown) [C8] | 56.6 ± 4 | 222 ± 4.8 (≈ 321 µM) | 64.6 ± 4.6 (≈ 93.3 µM) | 69.6 ± 1.3 | 1040 ± 19.4 (≈ 1510 µM) | 44.3 ± 1.8 |  |  |  |  |  |
| CC(=O)OCC1OC(n2cnc3c(N4CCOCC4)ncnc32)C(NS(=O)(=O)c2cccc([N+](=O)[O-])c2)C(OC(C)=O)C1OC(C)=O (stereo not shown) [C5] | 47.5 ± 1.4 | 622 ± 14.7 (≈ 918 µM) | 63.8 ± 5.3 (≈ 94.1 µM) | 60.3 ± 2.5 | 2280 ± 24.8 (≈ 3370 µM) | 43.3 ± 2.3 |  |  |  |  |  |
| CC(=O)OCC1OC(n2cnc3c(N4CCOCC4)ncnc32)C(NS(=O)(=O)c2cccc(Cl)c2)C(OC(C)=O)C1OC(C)=O (stereo not shown) [C10] | 60.5 | 16.3 ± 1.9 (≈ 24.4 µM) | 22.2 ± 3.4 (≈ 33.3 µM) | 62.1 ± 5.8 | 17.8 ± 2.1 (≈ 26.7 µM) | 67.0 ± 4.3 |  |  |  |  | 60.5 ± 1.8 |
| CC(=O)OCC1OC(n2cnc3c(N4CCOCC4)ncnc32)C(NS(=O)(=O)c2cccc(OC(F)(F)F)c2)C(OC(C)=O)C1OC(C)=O (stereo not shown) [C35] | 49.1 ± 1.6 | 457 ± 10.2 (≈ 638 µM) | 17 ± 1.4 (≈ 23.7 µM) | 67.9 ± 3.3 | 33.9 ± 0.5 (≈ 47.3 µM) | 68.9 ± 2.0 |  |  |  |  |  |
| CC(=O)OCC1OC(n2cnc3c(N4CCOCC4)nc(Cl)nc32)C(NS(=O)(=O)c2ccccc2)C(OC(C)=O)C1OC(C)=O (stereo not shown) [C20] | 72 ± 4.2 | 28.5 ± 4.2 (≈ 42.7 µM) | 30.1 ± 3.5 (≈ 45.1 µM) | 74.8 ± 4.8 | 292 ± 17.6 (≈ 438 µM) | 54.8 ± 2.8 |  |  |  |  |  |
| CC(=O)OCC1OC(n2cnc3c(N4CCOCC4)ncnc32)C(NS(=O)(=O)c2cccc(C(F)(F)F)c2)C(OC(C)=O)C1OC(C)=O (stereo not shown) [C29] | 53.4 ± 0.8 | 353 ± 18.7 (≈ 504 µM) | 64.8 ± 3.1 (≈ 92.5 µM) | 69.8 ± 4.3 | 88.4 ± 6.3 (≈ 126 µM) | 64.9 ± 4.7 |  |  |  |  |  |
| CC(=O)OCC1OC(n2cnc3c(N4CCOCC4)nc(N)nc32)C(NS(=O)(=O)c2cccc(Cl)c2)C(OC(C)=O)C1OC(C)=O (stereo not shown) [C11] | 51.8 ± 2.1 | 497.1 ± 3 (≈ 729 µM) | 372 ± 18.4 (≈ 545 µM) | 51.8 ± 1.0 | 225 ± 11.9 (≈ 329 µM) | 58.8 ± 3.1 |  |  |  |  |  |

Reference: paper PMC12957839, “Antiviral activity and mechanism of purine morpholine nucleoside analogues incorporating a sulfonamide fragment” (Journal of Advanced Research, 2025)
